Structures are written as SMILES. pEC50: −log10 of the molar value. Values after ≈ are worked out from the molar mass of the structure shown. *1 amine or outer side, *2 acyl side, *3 side chain or, on linkers, in order; H or OH if unused. Where a SMILES comes first, the peptide text is derived from it. Side-chain parts run from the residue outwards. [ ]: non-standard residue; d: D form. The star is where a group is joined. γGlu = O=C(O)[C@H](CCC(=O)[*:2])N[*:1]; Palmitoyl = CCCCCCCCCCCCCCCC(=O)*

Data set [1] has as its target T1, human glucagon receptor (hGlucagon R) (Homo sapiens, UniProt P47871).
T1 construct: expressed in transfected cells; host or cells: HEK-293
The data set is described as follows: cAMP response (HTRF) of HEK-293 cells stably expressing human glucagon receptor. Type of data set: cell-based. To be noted: read-out: EC50 hGlucagonR. On the procedure: cAMP content of cells was determined using a kit from Cisbio Corp. (cat. no. 62AM4PEC) based on HTRF (Homogenous Time Resolved Fluorescence). For preparation, cells were split into T175 culture flasks and grown overnight to near confluency in medium (DMEM/10% FBS). Medium was then removed and cells washed with PBS lacking calcium and magnesium, followed by proteinase treatment with accutase (Sigma-Aldrich cat. no. A6964). Detached cells were washed and resuspended in assay buffer (1×HBSS; 20 mM HEPES, 0.1% BSA, 2 mM IBMX) and cellular density determined. […] For measurement, 25 μl of test compound in assay buffer was added to the wells, followed by incubation for 30 minutes at room temperature.

Data set [2] in a line: physchem. Type of data set: physicochemical. As for the experimental part:
Prior to the testing of solubility and stability of a peptide batch, its content was determined. Therefore, two parameters were investigated, its purity (HPLC-UV) and the amount of salt load of the batch (ion chromatography). Since synthesized peptides contain primarily trifluoracetate anions, only anion chromatography was performed. The content was then calculated based on the assumption that peptide-related impurities are detected at the same UV-absorption rate as the target peptide, as well as that cations are not present in the sample.
Therefore, solutions from solid samples were prepared in different buffer systems with a concentration of 1.0 mg/mL compound based on the previously determined content. HPLC-UV was performed after 2 h of gentle agitation from the supernatant, which was obtained by 20 min of centrifugation at 4000 rpm. […] This analysis also served as t0 for the stability testing.
Instrument: Agilent 1100, column: X-Bridge C18 3.5 μm 2.1×150 mm (Waters), eluent: A: H20+500 ppm TFA/B: Methanol, flow: 0.55 ml/min, gradient: 0-5 min: 10-60% B; 5-15 min: 60-99% B; detection: 214 nm.

Data set [3] concerns the target T2, human GLP-1 receptor (hGLP-1 R) (Homo sapiens, UniProt P43220).
T2 construct: expressed in transfected cells; host or cells: HEK-293
The data set is described as follows: cAMP response (HTRF) of HEK-293 cells stably expressing human GLP-1 receptor. The class given is cell-based. Particulars: HEK-293 cells expressing human GLP-1 receptor, cAMP formation. In outline: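 Detached HEK-293 cells stably expressing the receptor were suspended in HBSS with 20 mM HEPES, 0.1% BSA and 2 mM IBMX. Test compound was added for 30 min at room temperature, and cellular cAMP was quantified by HTRF.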

T1 sequence (P47871 26-477): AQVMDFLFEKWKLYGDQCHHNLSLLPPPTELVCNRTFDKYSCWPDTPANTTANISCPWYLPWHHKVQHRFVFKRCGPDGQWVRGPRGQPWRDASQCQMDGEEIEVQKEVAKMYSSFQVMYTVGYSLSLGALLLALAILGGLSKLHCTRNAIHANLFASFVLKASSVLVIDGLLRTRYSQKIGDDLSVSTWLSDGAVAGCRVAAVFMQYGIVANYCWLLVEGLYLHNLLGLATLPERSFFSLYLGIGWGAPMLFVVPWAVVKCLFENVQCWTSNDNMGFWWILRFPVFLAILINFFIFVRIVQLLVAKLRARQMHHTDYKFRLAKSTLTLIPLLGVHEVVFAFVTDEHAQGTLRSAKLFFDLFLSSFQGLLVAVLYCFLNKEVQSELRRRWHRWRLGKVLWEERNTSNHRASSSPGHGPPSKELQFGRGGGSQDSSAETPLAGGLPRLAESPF
T2 sequence (P43220 24-463): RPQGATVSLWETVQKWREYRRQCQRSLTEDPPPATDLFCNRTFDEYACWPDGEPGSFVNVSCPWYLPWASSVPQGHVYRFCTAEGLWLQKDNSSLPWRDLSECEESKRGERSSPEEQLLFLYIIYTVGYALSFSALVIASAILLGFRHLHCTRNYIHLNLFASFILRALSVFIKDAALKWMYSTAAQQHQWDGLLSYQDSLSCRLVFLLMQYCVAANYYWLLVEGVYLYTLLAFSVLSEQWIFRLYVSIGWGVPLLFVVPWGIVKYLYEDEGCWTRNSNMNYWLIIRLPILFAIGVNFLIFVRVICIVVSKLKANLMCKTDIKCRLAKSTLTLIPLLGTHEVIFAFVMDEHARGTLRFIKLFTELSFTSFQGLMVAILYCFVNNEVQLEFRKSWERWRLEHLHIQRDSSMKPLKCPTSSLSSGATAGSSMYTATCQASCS

Regarding `CC[C@H](C)[C@H](NC(=O)[C@H](Cc1ccccc1)NC(=O)[C@H](CC(=O)O)NC(=O)[C@H](CCC(N)=O)NC(=O)[C@H](C)NC(=O)[C@H](CCCNC(=N)N)NC(=O)[C@H](CCCNC(=N)N)NC(=O)[C@H](CCC(=O)O)NC(=O)[C@H](CC(=O)O)NC(=O)[C@H](CCSC)NC(=O)[C@H](CCC(N)=O)NC(=O)[C@H](CCCCN)NC(=O)[C@H](CO)NC(=O)[C@H](CC(C)C)NC(=O)[C@H](CC(=O)O)NC(=O)[C@H](CO)NC(=O)[C@@H](NC(=O)[C@H](Cc1ccccc1)NC(=O)[C@@H](NC(=O)CNC(=O)[C@H](CCC(N)=O)NC(=O)[C@H](CO)NC(=O)[C@@H](N)Cc1c[nH]cn1)[C@@H](C)O)[C@@H](C)O)C(=O)N[C@@H](CCC(=O)O)C(=O)N[C@@H](Cc1c[nH]c2ccccc12)C(=O)N[C@@H](CC(C)C)C(=O)N[C@@H](CCCCN)C(=O)N[C@@H](CC(N)=O)C(=O)NCC(=O)NCC(=O)N1CCC[C@H]1C(=O)N[C@@H](CO)C(=O)N[C@@H](CO)C(=O)NCC(=O)N[C@@H](C)C(=O)N1CCC[C@H]1C(=O)N1CCC[C@H]1C(=O)N1CCC[C@H]1C(=O)N[C@@H](CO)C(N)=O` [(5)] (H-HSQGTFTSDLSKQMDERRAQDFIEWLKNGGPSSGAPPPS-NH2), in data set [1], the negative logarithm of the EC50 (pEC50) was 10.17.

Regarding `CCCCCCCCCCCCCCCC(=O)N[C@@H](CCC(=O)NCCCC[C@H](NC(=O)[C@H](CO)NC(=O)[C@@H]1CCCN1C(=O)[C@@H]1CCCN1C(=O)[C@@H]1CCCN1C(=O)[C@H](C)NC(=O)CNC(=O)[C@H](CO)NC(=O)[C@H](CO)NC(=O)[C@@H]1CCCN1C(=O)CNC(=O)[C@H](C)NC(=O)[C@H](CC(N)=O)NC(=O)[C@H](CCCCN)NC(=O)[C@H](CC(C)C)NC(=O)[C@H](Cc1c[nH]c2ccccc12)NC(=O)[C@H](CCC(=O)O)NC(=O)[C@@H](NC(=O)[C@H](Cc1ccccc1)NC(=O)[C@H](CC(=O)O)NC(=O)[C@H](CCC(N)=O)NC(=O)[C@H](C)NC(=O)[C@H](CCCNC(=N)N)NC(=O)[C@H](CCCNC(=N)N)NC(=O)[C@H](CO)NC(=O)[C@H](CCC(=O)O)NC(=O)[C@H](CCSC)NC(=O)[C@H](CCC(N)=O)NC(=O)[C@H](CCCCN)NC(=O)[C@H](CO)NC(=O)[C@H](CC(C)C)NC(=O)[C@H](CC(=O)O)NC(=O)[C@H](CO)NC(=O)[C@@H](NC(=O)[C@H](Cc1ccccc1)NC(=O)[C@@H](NC(=O)CNC(=O)[C@H](CCC(N)=O)NC(=O)[C@@H](CO)NC(=O)[C@@H](N)Cc1c[nH]cn1)[C@@H](C)O)[C@@H](C)O)[C@@H](C)CC)C(N)=O)C(=O)O` [(64)] (H-H[dS]QGTFTSDLSKQMESRRAQDFIEWLKNAGPSSGAPPPSK([γGlu-Palmitoyl])-NH2), the negative logarithm of the EC50 (pEC50) in data set [1] was 10.17.

Turning to `CCCCCCCCCCCCCCCC(=O)N[C@@H](CCC(=O)NCCCC[C@H](NC(=O)[C@H](CO)NC(=O)[C@@H]1CCCN1C(=O)[C@@H]1CCCN1C(=O)[C@@H]1CCCN1C(=O)[C@H](C)NC(=O)CNC(=O)[C@H](CO)NC(=O)[C@H](CO)NC(=O)[C@@H]1CCCN1C(=O)CNC(=O)[C@@H](NC(=O)[C@H](CC(N)=O)NC(=O)[C@H](CCCCN)NC(=O)[C@H](CC(C)C)NC(=O)[C@H](Cc1c[nH]c2ccccc12)NC(=O)[C@H](CCC(=O)O)NC(=O)[C@@H](NC(=O)[C@H](Cc1ccccc1)NC(=O)[C@H](CC(=O)O)NC(=O)[C@H](CCC(N)=O)NC(=O)[C@H](C)NC(=O)[C@H](CCCNC(=N)N)NC(=O)[C@H](CCCNC(=N)N)NC(=O)[C@H](CO)NC(=O)[C@H](CC(=O)O)NC(=O)[C@H](CCSC)NC(=O)[C@H](CCC(N)=O)NC(=O)[C@H](CCCCN)NC(=O)[C@H](CO)NC(=O)[C@H](CC(C)C)NC(=O)[C@H](CC(=O)O)NC(=O)[C@H](CO)NC(=O)[C@@H](NC(=O)[C@H](Cc1ccccc1)NC(=O)[C@@H](NC(=O)CNC(=O)[C@H](CCC(N)=O)NC(=O)[C@@H](CO)NC(=O)[C@@H](N)Cc1c[nH]cn1)[C@@H](C)O)[C@@H](C)O)[C@@H](C)CC)[C@@H](C)O)C(N)=O)C(=O)O` [(71)], the pEC50 in data set [1] is 11.72.

`CCCCCCCCCCCCCCCC(=O)N[C@@H](CCC(=O)NCCCC[C@H](NC(=O)[C@H](CO)NC(=O)[C@@H]1CCCN1C(=O)[C@@H]1CCCN1C(=O)[C@@H]1CCCN1C(=O)[C@H](C)NC(=O)CNC(=O)[C@H](CO)NC(=O)[C@H](CO)NC(=O)[C@@H]1CCCN1C(=O)CNC(=O)CNC(=O)[C@H](CO)NC(=O)[C@H](CCCCN)NC(=O)[C@H](CC(C)C)NC(=O)[C@H](Cc1c[nH]c2ccccc12)NC(=O)[C@H](CCC(=O)O)NC(=O)[C@@H](NC(=O)[C@H](Cc1ccccc1)NC(=O)[C@H](CC(=O)O)NC(=O)[C@H](CCC(N)=O)NC(=O)[C@H](C)NC(=O)[C@H](CCCNC(=N)N)NC(=O)[C@H](CCCNC(=N)N)NC(=O)[C@H](CO)NC(=O)[C@H](CCC(=O)O)NC(=O)[C@H](CCSC)NC(=O)[C@H](CCC(N)=O)NC(=O)[C@H](CCCCN)NC(=O)[C@H](CO)NC(=O)[C@H](CC(C)C)NC(=O)[C@H](CC(=O)O)NC(=O)[C@H](CO)NC(=O)[C@@H](NC(=O)[C@H](Cc1ccccc1)NC(=O)[C@@H](NC(=O)CNC(=O)[C@H](CCC(N)=O)NC(=O)[C@@H](CO)NC(=O)[C@@H](N)Cc1c[nH]cn1)[C@@H](C)O)[C@@H](C)O)[C@@H](C)CC)C(N)=O)C(=O)O` [(78)] (H-H[dS]QGTFTSDLSKQMESRRAQDFIEWLKSGGPSSGAPPPSK([γGlu-Palmitoyl])-NH2): the solubility at 2 h in data set [2] (pH 4.5) and in data set [2] (pH 7.4) was more than 1000 µg/mL throughout. In data set [3], this compound had a pEC50 of 11.38.

`CCCCCCCCCCCCCCCC(=O)N[C@@H](CCC(=O)NCCCC[C@H](NC(=O)[C@H](CO)NC(=O)[C@@H]1CCCN1C(=O)[C@@H]1CCCN1C(=O)[C@@H]1CCCN1C(=O)[C@H](C)NC(=O)CNC(=O)[C@H](CO)NC(=O)[C@H](CO)NC(=O)[C@@H]1CCCN1C(=O)CNC(=O)CNC(=O)[C@H](C)NC(=O)[C@H](CCCCN)NC(=O)[C@H](CC(C)C)NC(=O)[C@H](Cc1c[nH]c2ccccc12)NC(=O)[C@H](CCC(=O)O)NC(=O)[C@@H](NC(=O)[C@H](Cc1ccccc1)NC(=O)[C@H](CC(C)C)NC(=O)[C@H](CCC(N)=O)NC(=O)[C@H](C)NC(=O)[C@H](C)NC(=O)[C@H](CCCNC(=N)N)NC(=O)[C@H](CO)NC(=O)[C@H](CCC(=O)O)NC(=O)[C@H](CCSC)NC(=O)[C@H](CCC(N)=O)NC(=O)[C@H](CCCCN)NC(=O)[C@H](CO)NC(=O)[C@H](CC(C)C)NC(=O)[C@H](CC(=O)O)NC(=O)[C@H](CO)NC(=O)[C@@H](NC(=O)[C@H](Cc1ccccc1)NC(=O)[C@@H](NC(=O)CNC(=O)[C@H](CCC(N)=O)NC(=O)[C@@H](CO)NC(=O)[C@@H](N)Cc1c[nH]cn1)[C@@H](C)O)[C@@H](C)O)[C@@H](C)CC)C(N)=O)C(=O)O` [(79)] (H-H[dS]QGTFTSDLSKQMESRAAQLFIEWLKAGGPSSGAPPPSK([γGlu-Palmitoyl])-NH2): the results for the solubility at 2 h in data set [2] (pH 4.5) and in data set [2] (pH 7.4) were more than 1000 µg/mL and 666 µg/mL (≈ 145 µM), respectively. Further, the figures for the pEC50 in data set [3] and in data set [1] were 11.43 and 9.71, respectively.
